Test [1] deals with Trypanosoma cruzi. The experiment in a line: Antiprotozoal activity against Trypanosoma cruzi epimastigotes. In kind it is functional, organism-based. As to conditions: Trypanosoma cruzi.
Test [2] deals with Leishmania braziliensis. The experiment in a line: Antiprotozoal activity against Leishmania braziliensis promastigotes. In kind it is functional, organism-based.
Test [3] deals with Leishmania braziliensis. The experiment in a line: Antiprotozoal activity against Leishmania braziliensis amastigotes. Type of test: functional, organism-based.
In another test the test system is Leishmania chagasi. Nature of the test: Antiprotozoal activity against Leishmania chagasi amastigotes. In kind it is functional, organism-based.
The test system of test [4] is Trypanosoma cruzi. The experiment in a line: Antiprotozoal activity against Trypanosoma cruzi amastigotes. Type of test: functional, organism-based.
Test [5] has as its system Trypanosoma brucei brucei. Nature of the test: Antiprotozoal activity against Trypanosoma brucei brucei Lab 110 EATRO strain. In kind it is functional, organism-based.
The test system of test [6] is Leishmania donovani. The experiment in a line: Leishmanicidal activity against Leishmania donovani MHOM/PE/84/LC26. Type of test: functional, organism-based.
Test [7] has as its system Leishmania infantum. The experiment in a line: Leishmanicidal activity against Leishmania infantum MCAN/ES/2001/UCM-10. In kind it is functional, organism-based.
Test [8] has as its system Leishmania braziliensis. The experiment in a line: Leishmanicidal activity against Leishmania braziliensis MHOM/BR/1975/M2904. Type of test: functional, organism-based.
Test [9] is described as follows: Inhibition of Trypanosoma MetRS.
Test [10] is described as follows: Inhibition of Trypanosoma brucei MetRS.
In test [11] the test system is Trypanosoma brucei. The experiment in a line: Antiprotozoal activity against Trypanosoma brucei. In kind it is functional, organism-based.
Test [12] relates to Leishmania infantum. The experiment in a line: Antiprotozoal activity against Leishmania infantum MHOM/MA671TMAP263 axenic amastigotes assessed as growth inhibition measured after 5 day by MTT assay. Type of test: functional, organism-based. The conditions noted are these: 120 h. For orientation: Tetrazolium assays rely on reduction of a dye to a coloured formazan, in cell work by metabolically active cells.

Test [13] relates to Leishmania infantum. The experiment in a line: Antiprotozoal activity against Leishmania infantum MHOM/MA671TMAP263 promastigote assessed as growth inhibition measured after 5 day by MTT assay. As to conditions: MHOM/MA671TMAP263, 120 h. Type of test: functional, organism-based.
In test [14] the target is Trypanothione reductase (Trypanosoma brucei brucei, UniProt P39051). The experiment in a line: Inhibition of Trypanosoma brucei TryR.
Test [15] concerns Leishmania donovani. Nature of the test: Antiprotozoal activity against Leishmania donovani promastigote at 10 uM relative to control. In kind it is functional.
Test [16] concerns Leishmania donovani. The experiment in a line: Antiprotozoal activity against Leishmania donovani infected in mouse macrophage cell. In kind it is functional, organism-based.
Test [17] relates to Leishmania donovani. The experiment in a line: Leishmanicidal activity against Leishmania donovani. In kind it is functional, organism-based.
In test [18] the test system is Trypanosoma cruzi. The experiment in a line: Antiprotozoal activity against Trypanosoma cruzi Y strain epimastigotes. Type of test: functional, organism-based.
Test [19] has as its target T1, Trypanothione reductase (Trypanosoma cruzi, UniProt P28593). The experiment in a line: Inhibition of Trypanosoma cruzi TryR expressed in escherichia coli in presence of NADPH.
Test [20] deals with Trypanosoma brucei rhodesiense. The experiment in a line: Antiprotozoal activity against Trypanosoma brucei rhodesiense. In kind it is functional, organism-based.
The test system of test [21] is Trypanosoma cruzi. Nature of the test: Antiprotozoal activity against Trypanosoma cruzi epimastigote at 10 uM relative to control. In kind it is functional.
Test [22] addresses T1, Trypanothione reductase. Nature of the test: Inhibition of Trypanosoma cruzi TryR assessed as inhibition constant.
A short description of test [23]: Inhibition of TryR (unknown origin) assessed as inhibition constant. Also on record: species or system Bacteria.
Test [24] deals with Trypanosoma brucei. Nature of the test: Trypanocidal activity against Trypanosoma brucei trypomastigotes. Type of test: functional, organism-based.
Test [25] concerns Trypanosoma brucei. Nature of the test: Antitrypanosomal activity against bloodstream Trypanosoma brucei assessed as parasite growth inhibition. In kind it is functional, organism-based.
The target of test [26] is T1, Trypanothione reductase. The experiment in a line: Inhibition of Trypanosoma cruzi TryR expressed in escherichia coli SG5.
For a further test, the system named is MRC5. The experiment in a line: Anticancer activity against human MRC5 cells assessed as cell growth inhibition. In kind it is functional, cell-based.
In test [27] the test system is Leishmania infantum. Nature of the test: Antiprotozoal activity against Leishmania infantum amastigotes measured after 7 days by microscopic analysis. Type of test: functional, organism-based. As to conditions: 168 h.
In test [28] the test system is Trypanosoma cruzi. Nature of the test: Antiprotozoal activity against Trypanosoma cruzi amastigotes measured after 4 days. In kind it is functional, organism-based. The conditions noted are these: 96 h.
Test [29] deals with Trypanosoma brucei. The experiment in a line: Antiprotozoal activity against Trypanosoma brucei trypomastigotes measured after 4 days by MTT assay. Type of test: functional, organism-based. The conditions noted are these: 96 h.
For test [30], the target named is T1, Trypanothione reductase. Nature of the test: Inhibition of Trypanosoma cruzi TryR assessed as inhibition constant by TR assay.
A further test relates to HepG2. Nature of the test: Anticancer activity against human HepG2 cells assessed as cell growth inhibition measured after 72 hrs by MTT assay. Type of test: functional, cell-based. The conditions noted are these: HepG2, 72 h.
Test [31] concerns Leishmania donovani. The experiment in a line: Antiprotozoal activity against Leishmania donovani MHOM/IN/00/DEV strain promastigotes assessed as growth inhibition measured after 72 hrs by MTT assay. Type of test: functional, organism-based.
Test [32] in a line: Inhibition of Trypanosoma cruzi Fe - Superoxide dismutase.
Test [33] has as its system Trypanosoma cruzi. The experiment in a line: Antiprotozoal activity against Trypanosoma cruzi […] infected in mouse assessed as reduction in curative effect at 15 mg/kg relative to control. In kind it is functional.
Test [34] concerns Trypanosoma cruzi. Nature of the test: Antiprotozoal activity against Trypanosoma cruzi […] infected in African green monkey Vero cells assessed as reduction in infection measured after 72 hrs relative to control. In kind it is functional.
Test [35] concerns Trypanosoma cruzi. Nature of the test: Antiprotozoal activity against Trypanosoma cruzi […] measured after 72 hrs. In kind it is functional, organism-based.
Test [36] concerns Trypanosoma cruzi. The experiment in a line: Antiprotozoal activity against Trypanosoma cruzi trypomastigotes assessed as growth inhibition at 1.6 uM relative to control. Type of test: functional.

SMILES strings stand for the structures. A value given as a limit tells only on which side of the number the result lay.

The IC50 is the midpoint of a concentration-inhibition curve. By Ki is commonly meant a dissociation constant, usually derived from enzyme kinetics or from competition with a known ligand. As usually defined, the inhibition is the relative decrease from the control value, in per cent. The inhibition in vivo is the drop in the measured response relative to a control, in per cent.

T1 sequence (P28593 whole entry): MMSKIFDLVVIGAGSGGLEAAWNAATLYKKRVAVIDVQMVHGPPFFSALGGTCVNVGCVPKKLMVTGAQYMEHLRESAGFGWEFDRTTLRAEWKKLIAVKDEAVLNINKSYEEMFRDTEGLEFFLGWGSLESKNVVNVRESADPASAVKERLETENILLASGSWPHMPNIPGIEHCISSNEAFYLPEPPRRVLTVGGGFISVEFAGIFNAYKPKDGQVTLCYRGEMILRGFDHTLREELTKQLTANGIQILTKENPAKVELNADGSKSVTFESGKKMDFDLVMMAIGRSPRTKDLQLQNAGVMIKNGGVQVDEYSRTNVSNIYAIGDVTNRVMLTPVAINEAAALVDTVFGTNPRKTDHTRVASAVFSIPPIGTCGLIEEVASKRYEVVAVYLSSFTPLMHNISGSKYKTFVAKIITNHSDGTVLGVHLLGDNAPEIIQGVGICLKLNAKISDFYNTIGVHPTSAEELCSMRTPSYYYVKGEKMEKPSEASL
Sequence of Trypanothione reductase (Trypanosoma brucei brucei, UniProt P39051) (P39051 whole entry): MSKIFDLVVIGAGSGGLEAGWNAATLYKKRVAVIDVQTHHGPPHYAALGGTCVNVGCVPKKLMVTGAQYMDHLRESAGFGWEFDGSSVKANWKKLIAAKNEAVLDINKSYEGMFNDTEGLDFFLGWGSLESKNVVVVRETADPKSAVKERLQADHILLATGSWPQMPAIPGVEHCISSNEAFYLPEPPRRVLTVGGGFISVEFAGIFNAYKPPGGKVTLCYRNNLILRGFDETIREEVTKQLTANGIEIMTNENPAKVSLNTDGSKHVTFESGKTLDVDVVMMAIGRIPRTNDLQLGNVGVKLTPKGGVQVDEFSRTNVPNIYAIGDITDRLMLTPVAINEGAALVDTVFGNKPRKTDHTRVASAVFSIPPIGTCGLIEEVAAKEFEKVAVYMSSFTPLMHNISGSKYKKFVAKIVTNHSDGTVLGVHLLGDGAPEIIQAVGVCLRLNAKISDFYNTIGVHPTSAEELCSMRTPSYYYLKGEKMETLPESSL

`CCCCCCCCCCNCCCCCCN`: the IC50 with Trypanosoma cruzi [1], in the test with Leishmania braziliensis [2], with Leishmania braziliensis [3], in the test on Leishmania chagasi and in the test with Trypanosoma cruzi [4] was 10 µM in each case.

As for `N=C(N)c1ccc(N2CCCN(c3ccc(C(=N)N)cc3)CC2)cc1`, in [5], the IC50 was 0.002 µM.

On to `CN(CCCNc1c(NCCC[N+](C)(C)C)c(=O)c1=O)CCCNc1c(NCCC[N+](C)(C)C)c(=O)c1=O`, for which the IC50 with Leishmania donovani [6], with Leishmania infantum [7] and in the test with Leishmania braziliensis [8] was above 15 µM throughout.

`Fc1ccc2[nH]c(NCCCN[C@@H]3CCNc4c(Cl)cc(Cl)cc43)nc2n1`: the Ki in test [9] and in test [10] was 0.002 µM each time. The figures for the half-maximal inhibitory concentration (IC50) (in [10]; in the test on Trypanosoma brucei [11]) were 0.002 µM and 0.0004 µM, respectively.

Turning to `O=C1c2cccc3cccc(c23)C(=O)N1CCCNCCCNCCCCNCCCNCCCN1C(=O)c2cccc3cccc(c23)C1=O`, the IC50 in the test with Leishmania infantum [12] was 12.3 µM; with Leishmania infantum [13], 7.56 µM.

In turn, `CN1CCN(CCCN2c3ccccc3Sc3ccc(Cl)cc32)CC1` [PROCHLORPERAZINE] returned an IC50 against Trypanothione reductase [14] of 7.5 µM.

The compound `COc1ccc2nc3cc(Cl)ccc3c(NCCCCCCCCNc3c4ccc(Cl)cc4nc4ccc(OC)nc34)c2c1` registered an inhibition at 10 µM with Leishmania donovani [15] of 42%.

Consider `CCCCCCCCCCCCCCCCNc1c(NCC[N+](C)(C)C)c(=O)c1=O`, for which the IC50 with Leishmania donovani [16] and with Leishmania donovani [17] was above 12 µM in each case.

For the compound `NCCC(=O)CN`, the IC50 in the test on Trypanosoma cruzi [18] came to 1180 µM.

With `O=C1NC(=O)C(c2c[nH]c3ccccc23)=C1NCCCNCCCNC1=C(c2c[nH]c3ccccc23)C(=O)NC1=O`, the IC50 on Trypanothione reductase [19] is above 57 µM.

The compound `CN1CCN(CCCNc2cc(Cl)ccc2Sc2ccccc2)CC1` gave an IC50 in test [20] of 0.98 µM. This compound also gave an inhibition at 10 µM with Trypanosoma cruzi [21] of 85%. Besides, on Trypanothione reductase [22], the Ki was 27 µM.

As for `O=C1CC[C@]23/C=C/C(=O)NCCCCNCCCNC(=O)/C=C/c4ccc(c2c4)O[C@@H]3C1`, the Ki in test [23] came out at 114 µM. In the test on Trypanosoma brucei [24], this compound came in with an IC50 of 65 µM.

As to `Nc1nc(N)nc(NCCCNCCCCCCCNCCCNCCCNc2nc(N)nc(N)n2)n1`, the 50% inhibitory concentration (IC50) in the test on Trypanosoma brucei [25] was 24 µM.

Regarding `NCCCCN(CCCN)CCCNc1cc(Cl)ccc1Sc1ccccc1`, the IC50 at Trypanothione reductase [26] stood at 1 µM.

For `COc1ccc2nc3cc(Cl)ccc3c(NCCCN(CCCNc3c4ccc(Cl)cc4nc4ccc(OC)cc34)C(=O)C(NC(=O)OC(C)(C)C)C(C)C)c2c1` (stereo unspecified), the half-maximal inhibitory concentration (IC50) was above 3.13 µM with MRC5, below 1.56 µM in the test with Leishmania infantum [27], below 1.56 µM in the test with Trypanosoma cruzi [28] and below 1.56 µM in the test on Trypanosoma brucei [29].

Turning to `Clc1ccc(Sc2ccccc2)c(NCCN2CCCC2)c1`, the half-inhibitory concentration (IC50) with Trypanosoma cruzi [1] is 10 µM. In addition, on Trypanothione reductase [30], the Ki amounted to 86 µM.

For the compound `c1ccc2c(c1)cc1c(-c3ccc(CNCCCN4CCN(CCCNCc5ccc(-c6nc7ccccc7n7c6cc6ccccc67)cc5)CC4)cc3)nc3ccccc3n12`, the IC50 came out at 1.56 µM in the test with HepG2 and 0.57 µM with Leishmania donovani [31].

In the case of `c1ccc(CN2CCN(Cc3ccccn3)CCN(Cc3ccccn3)CC2)nc1`, the IC50 in [32] was determined as 18 µM; with Trypanosoma cruzi [35] it was 7 µM. For the same compound, the inhibition in vivo at 15 mg/kg with Trypanosoma cruzi [33] came out at 33%. Besides, in the test on Trypanosoma cruzi [34], the “inhibition (INH)” value came out at 81%.

In the case of `C1CCC(CCCNCCCN2CCN(CCCNCCCC3CCCCC3)CC2)CC1`, the inhibition at 1.6 µM in the test with Trypanosoma cruzi [36] is 70%.

The values are drawn from ChEMBL document CHEMBL5260817, “Polyamine-based analogs and conjugates as antikinetoplastid agents” (Eur J Med Chem, 2017).
